Patent US7741327B2 (Hoffmann-La Roche Inc., priority 2008, dated 2010)

Target: T1, Recombinant human liver GK1 (GST-GK) (Homo sapiens, UniProt P35557)
T1 construct: made in house; host or cells: E. coli
T1 sequence (P35557 1-466 isoform P35557-2): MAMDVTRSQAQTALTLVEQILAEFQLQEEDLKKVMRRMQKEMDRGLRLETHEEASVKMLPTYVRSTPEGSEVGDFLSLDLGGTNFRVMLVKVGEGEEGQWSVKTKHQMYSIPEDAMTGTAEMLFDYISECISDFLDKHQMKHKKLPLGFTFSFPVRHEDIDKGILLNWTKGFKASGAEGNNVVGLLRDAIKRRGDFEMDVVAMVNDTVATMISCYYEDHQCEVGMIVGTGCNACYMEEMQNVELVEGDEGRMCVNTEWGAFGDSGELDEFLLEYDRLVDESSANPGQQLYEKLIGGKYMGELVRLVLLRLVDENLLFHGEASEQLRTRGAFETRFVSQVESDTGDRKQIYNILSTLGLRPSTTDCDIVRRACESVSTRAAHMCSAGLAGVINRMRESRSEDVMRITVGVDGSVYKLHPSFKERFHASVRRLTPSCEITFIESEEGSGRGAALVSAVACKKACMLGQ
Assay: In vitro glucokinase activity (G6PDH-coupled NADH assay)
Assay type: biochemical
Details: 30° C., 5 mM D-glucose, 10% DMSO
Summary of the method: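 GST-tagged human liver GK1 from E. coli, assayed at 30° C in 25 mM Hepes pH 7.1 with 5 mM D-glucose, 1 mM ATP, 1.8 mM NAD and G6PDH coupling, 10% DMSO final; reaction started with enzyme after 10 min preincubation. NADH formation followed at OD340; SC1.5 is activator concentration giving 50% increase over DMSO control rate.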

`CC1(C)OC[C@@H](Cn2ccc(NC(=O)[C@H](Cc3ccc(F)cc3)N3CC(Oc4ccccc4Cl)=CC3=O)n2)O1` [Example 186, (S)-2-[4-(2-chloro-phenoxy)-2-oxo-2,5-dihydro-pyrrol-1-yl]-N-[1-((R)-2,2-dimethyl-[1,3]dioxolan-4-yl-methyl)-1H-pyrazol-3-yl]-3-(4-fluoro-phenyl)-propionamide] was tested. Which “SC1.5 (concentration of activator that produced a 50% increase in the activity of GK)” value did it give?
Its value is 1.538 µM.

`CC(C)(O)Cn1ccc(NC(=O)C(CC2CCOCC2)N2CC(Oc3c(F)cccc3F)=CC2=O)n1` (stereo not drawn) [Example 42, 2-[4-(2,6-Difluoro-phenoxy)-2-oxo-2,5-dihydro-pyrrol-1-yl]-N-[1-(2-hydroxy-2-methyl-propyl)-1H-pyrazol-3-yl]-3-(tetrahydro-pyran-4-yl)-propionamide] was tested. Which “SC1.5 (concentration of activator that produced a 50% increase in the activity of GK)” value did it give?
Its value is 0.148 µM.

`COC1=CC(=O)N([C@@H](CC2CCCC2)C(=O)Nc2ccn(C)n2)C1` [Example 6, (S)-3-Cyclopentyl-2-(4-methoxy-2-oxo-2,5-dihydro-pyrrol-1-yl)-N-(1-methyl-1H-pyrazol-3-yl)-propionamide] was tested. Which “SC1.5 (concentration of activator that produced a 50% increase in the activity of GK)” value did it give?
Its value is 12.645 µM.

With `CCOc1cccc(OC2=CC(=O)N([C@@H](CC(C)C)C(=O)Nc3ccn(C[C@@H](O)CO)n3)C2)c1Cl` [Example 161, (S)-2-[4-(2-chloro-3-ethoxy-phenoxy)-2-oxo-2,5-dihydro-pyrrol-1-yl]-4-methyl-pentanoic acid [1-((R)-2,3-dihydroxy-propyl)-1H-pyrazol-3-yl]-amide] as the molecule, how does the “SC1.5 (concentration of activator that produced a 50% increase in the activity of GK)” value read?
The value was 0.042 µM.

Which “SC1.5 (concentration of activator that produced a 50% increase in the activity of GK)” value does the source give for `Cl.O=C(Nc1ccn(C[C@@H](O)CO)n1)[C@H](CC1CCCCC1)N1CC(Oc2c(F)ccc(Cl)c2F)=CC1=O` [Example 76, (S)-2-[4-(3-Chloro-2,6-difluoro-phenoxy)-2-oxo-2,5-dihydro-pyrrol-1-yl]-3-cyclohexyl-N-[1-((R)-2,3-dihydroxy-propyl)-1H-pyrazol-3-yl]-propionamide Hydrochloride] here?
The value was 0.017 µM.

With `COc1ccccc1OC1=CC(=O)N([C@@H](CC2CCCO2)C(=O)Nc2ccn(CC(C)(C)O)n2)C1` (stereo partly drawn) [Example 179, (S)-N-[1-(2-hydroxy-2-methyl-propyl)-1H-pyrazol-3-yl]-2-[4-(2-methoxy-phenoxy)-2-oxo-2,5-dihydro-pyrrol-1-yl]-3-(tetrahydro-furan-2-yl)-propionamide] as the molecule, how does the “SC1.5 (concentration of activator that produced a 50% increase in the activity of GK)” value read?
Its value is 0.295 µM.

`CC(C)C[C@@H](C(=O)Nc1cnccn1)N1CC(Oc2ccc(CC(C)(C)O)cc2)=CC1=O` [Example 245, (S)-2-{4-[4-(2-Hydroxy-2-methyl-propyl)-phenoxy]-2-oxo-2,5-dihydro-pyrrol-1-yl}-4-methyl-pentanoic acid pyrazin-2-ylamide] was tested. Which “SC1.5 (concentration of activator that produced a 50% increase in the activity of GK)” value did it give?
Its value is 3.668 µM.

`CC(C)C[C@@H](C(=O)Nc1ccn(C[C@@H](O)CO)n1)N1CC(Oc2ccccc2Br)=CC1=O` [Example 137, (S)-2-[4-(2-Bromo-phenoxy)-2-oxo-2,5-dihydro-pyrrol-1-yl]-4-methyl-pentanoic acid [1-((R)-2,3-dihydroxy-propyl)-1H-pyrazol-3-yl]-amide] was tested. Which “SC1.5 (concentration of activator that produced a 50% increase in the activity of GK)” value did it give?
The value was 0.26 µM.

For `CC(C)C[C@@H](C(=O)Nc1ccn(CC(=O)O)n1)N1CC(Oc2cccc(C3CC3)c2F)=CC1=O` [Example 149, (3-{(S)-2-[4-(3-Cyclopropyl-2-fluoro-phenoxy)-2-oxo-2,5-dihydro-pyrrol-1-yl]-4-methyl-pentanoylamino}-pyrazol-1-yl)-acetic acid], which “SC1.5 (concentration of activator that produced a 50% increase in the activity of GK)” value is on record?
The value was 1.196 µM.

With `CC(C)C[C@@H](C(=O)Nc1ccn(C[C@@H]2COC(C)(C)O2)n1)N1CC(Oc2cccc(C3CC3)c2F)=CC1=O` [Example 146, (S)-2-[4-(3-Cyclopropyl-2-fluoro-phenoxy)-2-oxo-2,5-dihydro-pyrrol-1-yl]-4-methyl-pentanoic acid [1-((R)-2,2-dimethyl-[1,3]dioxolan-4-yl-methyl)-1H-pyrazol-3-yl]-amide] as the molecule, how does the “SC1.5 (concentration of activator that produced a 50% increase in the activity of GK)” value read?
Its value is 0.21 µM.

Which “SC1.5 (concentration of activator that produced a 50% increase in the activity of GK)” value does the source give for `Cc1cccc(OC2=CC(=O)N([C@@H](CC3CCCCC3)C(=O)Nc3ccn(CC(C)(C)O)n3)C2)c1C` [Example 204, (S)-3-cyclohexyl-2-[4-(2,3-dimethyl-phenoxy)-2-oxo-2,5-dihydro-pyrrol-1-yl]-N-[1-(2-hydroxy-2-methyl-propyl)-1H-pyrazol-3-yl]-propionamide] here?
Its value is 0.012 µM.

For `CCOc1ccc(F)c(OC2=CC(=O)N([C@@H](CC(C)C)C(=O)Nc3cnc([C@H]4COC(C)(C)O4)cn3)C2)c1F` [Example 152, (S)-2-[4-(3-Ethoxy-2,6-difluoro-phenoxy)-2-oxo-2,5-dihydro-pyrrol-1-yl]-4-methyl-pentanoic acid [5-((S)-2,2-dimethyl-[1,3]dioxolan-4-yl)-pyrazin-2-yl]-amide], which “SC1.5 (concentration of activator that produced a 50% increase in the activity of GK)” value is on record?
The value was 0.566 µM.

With `CC(C)C[C@@H](C(=O)Nc1ccn(C[C@@H](O)CO)n1)N1CC(Oc2cccc(N(C)C)c2F)=CC1=O.Cl` [Example 140, (S)-2-[4-(3-Dimethylamino-2-fluoro-phenoxy)-2-oxo-2,5-dihydro-pyrrol-1-yl]-4-methyl-pentanoic acid [1-((R)-2,3-dihydroxy-propyl)-1H-pyrazol-3-yl]-amide hydrochloride] as the molecule, how does the “SC1.5 (concentration of activator that produced a 50% increase in the activity of GK)” value read?
The value was 0.37 µM.

How did the “SC1.5 (concentration of activator that produced a 50% increase in the activity of GK)” value turn out when `COC(C)(C)Cn1ccc(NC(=O)[C@H](CC2CCCC2)N2CC(OC(C)C)=CC2=O)n1` [Example 22, (S)-3-Cyclopentyl-N-[1-(2-methoxy-2-methyl-propyl)-1H-pyrazol-3-yl]-2-(4-isopropoxy-2-oxo-2,5-dihydro-pyrrol-1-yl)-propionamide] was run?
Its value is 1.048 µM.

Which “SC1.5 (concentration of activator that produced a 50% increase in the activity of GK)” value does the source give for `CCO[C@@H](C)C[C@@H](C(=O)Nc1ccn(CC(C)(C)O)n1)N1CC(Oc2cccc(Cl)c2Cl)=CC1=O` [Example 95, (2S,4S)-2-[4-(2,3-Dichloro-phenoxy)-2-oxo-2,5-dihydro-pyrrol-1-yl]-4-ethoxy-pentanoic acid [1-(2-hydroxy-2-methyl-propyl)-1H-pyrazol-3-yl]-amide] here?
The value was 0.703 µM.

`CC(C)(O)Cn1ccc(NC(=O)[C@H](CC2CCCCC2)N2CC(Oc3cccc4c3OCCO4)=CC2=O)n1` [Example 33, (S)-3-Cyclohexyl-2-[4-(2,3-dihydro-benzo[1,4]dioxin-5-yloxy)-2-oxo-2,5-dihydro-pyrrol-1-yl]-N-[1-(2-hydroxy-2-methyl-propyl)-1H-pyrazol-3-yl]-propionamide] was tested. Which “SC1.5 (concentration of activator that produced a 50% increase in the activity of GK)” value did it give?
Its value is 0.035 µM.

With `O=C(Nc1ccn(C[C@@H](O)CO)n1)C(CC1(F)CCCC1)N1CC(Oc2c(F)cccc2F)=CC1=O` (stereo partly drawn) [Example 159, 2-[4-(2,6-Difluoro-phenoxy)-2-oxo-2,5-dihydro-pyrrol-1-yl]-N-[1-((R)-2,3-dihydroxy-propyl)-1H-pyrazol-3-yl]-3-(1-fluoro-cyclopentyl)-propionamide] as the molecule, how does the “SC1.5 (concentration of activator that produced a 50% increase in the activity of GK)” value read?
Its value is 2.867 µM.

`Cc1cccc(OC2=CC(=O)N([C@@H](CC(C)C)C(=O)Nc3ccn(CCO[Si](C)(C)C(C)(C)C)n3)C2)c1F` [Example 132, (S)-2-[4-(2-Fluoro-3-methyl-phenoxy)-2-oxo-2,5-dihydro-pyrrol-1-yl]-4-methyl-pentanoic acid {1-[2-(t-butyl-dimethyl-silanyloxy)-ethyl]-1H-pyrazol-3-yl}-amide] was tested. Which “SC1.5 (concentration of activator that produced a 50% increase in the activity of GK)” value did it give?
The value was 0.577 µM.
